How the values were obtained:
undifferentiated B cell = test: Differentiation of undifferentiated B cell into regulatory B cell (Breg); assay type: cell-based; conditions: undifferentiated B cell treated with metformin
Description: As a result, the numbers of both IL-10+ B cell and Foxp3+ B cell were all increased.

Th17 cell [1] = test: Th17 differentiation of CD4+ T cells from lupus mouse spleen: FACS, real-time PCR, IL-17 ELISA; assay type: cell-based; conditions: 3 days
Experimental: Particularly, T cells were separated from the spleen of the lupus mouse model by using CD4+ microbeads. […] Upon completion of the culture, some of the cultured cells were stained with CD4-PerCP and ILo-17 PE, followed by FACS. RNA was separate from the remaining cells, from which Th17 cell related gene was amplified by real-time PCR. The expression of IL-17 in the culture solution was analyzed by ELISA (antigen-antibody examination).

Th17 cell [2] = test: Th17 cytokine ELISA and electron microscopy with autophagy activity inhibitor in T cells of lupus mouse model; assay type: cell-based
Experimental: Thus, the present inventors investigated whether or not the activation of autophagy could be directly involved in the suppression of Th17 cell by using an autophagy activity inhibitor. Particularly, T cells were separated from the spleen cells of the lupus mouse model. […] Upon completion of the culture, IL-17, IL-21, and TNF-α cytokines in the culture solution were analyzed by ELISA. Some of those cultured cells were observed under electron microscope to directly observe the activated autophagy therein.

[3] = tested on: regulatory T cell and Th17 cell; test: Regulatory T cell and Th17 cell activity in lupus animal model; assay type: in vivo; conditions: vs control group
mTOR/STAT3 = mTOR/STAT3 signalling in T cells from lupus animal model spleen, Western blotting and confocal staining; assay type: cell-based
Experimental: (§1) Particularly, T cells were separated from the spleen cells of the lupus animal model. […] To analyze signal molecules in the cultured cells, protein was extracted from each condition of the cells. Western blotting was performed with the extracted protein. The protein separated by size was conjugated with each antibody against p-AMPK, AMPK, p-mTOR, mTOR, p-STAT3 705, p-STAST3 727, STAT3, p-STAT5, STAT5, and β-actin. The activity of each molecule was evaluated. Some of the cultured cells were conjugated with p-AMPK, AMPK, p-mTOR, p-STAT3 705, p-STAT3 727, and p-p53 fluorescent antibodies, whose expressions were examined under fluorescent microscope after confocal staining
In addition, nucleus and cytoplasm were separated in order to examine the expression of NrF2 in the nucleus and cytoplasm. Electrophoresis was performed and then Nrf2, tubulin, and β-actin were analyzed by Western blotting.

autophagy = test: Autophagy molecules and IL-17/Foxp3 in T cells under Th17 differentiation, Western blotting and confocal staining; assay type: cell-based; conditions: 1 mM metformin, 24 hours
Experimental: as §1, with “ATG5, p62,” for “p-AMPK, AMPK, p-mTOR, mTOR, p-STAT3 705, p-STAST3 727, STAT3, p-STAT5, STAT5,”, “3-actin.” for “β-actin.”, “DAPI, IL-17,” for “p-AMPK, AMPK, p-mTOR, p-STAT3 705, p-STAT3 727,”, “Foxp3” for “p-p53”, “staining.” for “staining”

lupus animal model = test: Serum lupus-specific dsDNA and IgG by ELISA in the lupus animal model; assay type: in vivo, mouse; conditions: oral 100 mg/kg every day
Experimental: At this time, the lupus animal model not treated with metformin was used as the control. […] The analysis of the treatment effect was performed as follows. […] Serum was separated from the blood extracted above. The levels of lupus-specific dsDNA (Sigma, cat no. D8515) and IgG (Sigma) in the separated serum were measured by ELISA. Particularly, 96-well plate was coated with dsDNA or anti-mouse IgG, to which the serum separated from the mouse blood was loaded, followed by reaction. Then, […] was added thereto, followed by reaction. Color development was induced by TMB system and the […] was measured.

pathogenic B cell = test: IgG production by LPS-stimulated B cell; assay type: cell-based, mouse; conditions: metformin 1 μM, 2 μM, and 5 μM; LPS 1 μg/ml
Experimental: Then, the level of IgG produced by B cell of the mouse was measured by the same manner as described in Example 1.

B cell = B cell differentiation stages after LPS and metformin for 3 days, FACS; assay type: cell-based
Experimental: FACS was performed to observe any changes of the cell in each stage of B cell differentiation.

TFH cell = TFH cell expression in spleen tissue, confocal staining, lupus animal model; assay type: in vivo, mouse; conditions: intraperitoneal injection 3 times a week; 5 weeks after the administration
Experimental: Particularly, CD4-PerCP, B220-APC, GL-7-FITC, and IOCS-PE fluorescence staining was performed. Then, TFH cells expressing GL-7+ICOS+ in CD4 T cells were examined under fluorescent microscope.

lupus mouse model = test: Spleen and liver observation (size, GC follicles, inflammatory cell infiltration) in lupus mouse model; assay type: in vivo
Experimental: The size of those spleen and liver was measured by the naked eye, and the size and the number of GC follicle (Germinal Center follicle) were also observed.
The infiltration of inflammatory cells around the blood vessels of liver tissue was also observed.

pathogenic B cells = test: FACS and staining of spleen cells for pathogenic B cells, GC and THF in lupus mouse model; assay type: in vivo
Description: Then, spleen cells were separated therefrom and B cell was observed. Particularly, the representative pathogenic B cells, B220−CD138+ long lived plasma B cell and GL7+B220+ germinal center B cell, were observed. For the observation, the spleen cells separated from each group were stained with CD138 and B220 and the […] were stained with GL7 and B220, followed by FACS to examine the expression of each cell.

[4] = real-time PCR, Th17 differentiation
[5] = 1 mM metformin with IL-6 or IL-2 (10 ng/ml), 24 hours
[6] = vs lupus group not treated with metformin
[7] = oral 100 mg/kg every day for 3 weeks, spleen cells, FACS, vs control
[8] = staining of spleen cells, vs lupus mouse model not treated

## CN(C)C(=N)NC(=N)N [metformin]
Undifferentiated B cell
  number of Foxp3+ B cell: increased
  number of IL-10+ B cell: increased
Th17 cell [1]; Th17 differentiation condition, metformin 0.1, 1, and 5 mM, FACS and ELISA
  expression of IL-17: regulated by metformin
Th17 cell [1]; [4]
  expression of Foxp3 gene: increased
  expression of Th-17 related gene Ahr: suppression
  expression of Th-17 related gene IL-17: suppression
  expression of Th-17 related gene IL-21: suppression
  expression of Th-17 related gene RUNX1: suppression
  expression of Th-17 related gene TNF-α: suppression
Th17 cell [2]; 1 mM metformin plus 10 μM bafilomycin or methyladenine, 72 hours, ELISA
  suppressed IL-17 expression when the autophagy inhibitor was co-treated: increased
Th17 cell [2]; 1 mM metformin, Th17 differentiation, 72 hours, ELISA
  expression of IL-17: suppressed
Th17 cell [2]; electron microscope
  intracellular activation of autophagy: directly confirmed
[3]
  activity of Th17: decreased
  activity of regulatory T cell: increased
mTOR/STAT3; [5]
  AMPK activity: activated
  mTOR/STAT3 activity: suppression
mTOR/STAT3; 1 mM metformin, nucleus and cytoplasm, Western blotting
  expression of NrF2: increased
autophagy; Western blotting
  ATG5 (autophagy activating molecule): activate
  p62 (autophagy activating molecule): activate
autophagy; confocal staining
  expression of Foxp3: increase
  expression of IL-17: suppress
Lupus animal model; [6]
  level of IgG in serum: significantly reduced
  level of lupus-specific dsDNA in serum: significantly reduced
Lupus animal model; vs normal (wild type) mouse group
  level of lupus-specific dsDNA in serum compared with normal mouse group: rather lower than that of the normal mouse group
Pathogenic B cell
  IgG production in B cell: reduced by metformin dose-dependently
B cell
  germinal center B cell: suppressed by metformin dose-dependently
  pre-long lived plasma cell B220+CD138 low cell: suppressed by metformin dose-dependently
  pro/preB cell in the stage of early B cell differentiation: suppressed by metformin dose-dependently
TFH cell
  expression of TFH cell expressing ICOS in the spleen tissue: suppressed
Lupus mouse model; spleen, vs group not treated with metformin
  size and number of GC follicle: significantly decreased
Lupus mouse model; vs group not treated with metformin
  size of spleen: significantly reduced
Lupus mouse model; vs lupus mouse group not treated with metformin
  infiltration of inflammatory cells around the blood vessels of liver tissue: hardly observe
Pathogenic B cells; [7]
  B220-CD138+ long lived plasma B cell: significantly reduced
  GL7+B220+ germinal center B cell: significantly reduced
Pathogenic B cells; [8]
  number of follicular B helper T cells (THF): also reduced
  size of GC: significantly reduced
